Values belong to the molecule of their own block, whether it stands above or below them.
Tests used:
[1] = test system: rats; assay: Histopathology of organs and tissues collected after single time point imaging
Description: (§1) The single time point studies were terminal so that they allowed immediate tissue retrieval for cross-validation using histopathological analyses. […] Each animal was injected with about 2 mCi of ^99mTc-duramycin and after 1 hour the SPECT/CT/MRI data were acquired. From each group, the animals were immediately euthanized after imaging. The organs and tissues from three randomly selected individuals were collected, fixed and processed for histopathology.

[2] = test system: rats; assay: Quantitative ex vivo gamma counting of ^99mTc-duramycin uptake in excised tissues after chemotoxic drug
Description: This initial quantitative study was conducted by determining changes in radioactivity uptake in excised tissues using gamma counting ex vivo. Experiments were designed to survey changes in ^99mTc-duramycin uptake in tissues from treated versus untreated control groups after administration of a single dosage of each chemotherapeutic drug for each population of animals. […] Accordingly, at designated time post-treatment, ^99mTc-duramycin was injected intravenously and each animal was euthanized for tissue collection and gamma counting. This is a standard practice in radionuclide studies that provides precise, quantitative biodistribution data for measuring changes in tracer uptake.
The data can be expressed in two ways—net change in ^99mTc-duramycin uptake per unit tissue in cyclophosphamide-treated tissues relative to the mean value of the non-treated control population (FIG. 1A), and fold changes in ^99mTc-duramycin uptake over the mean of control (1B).
An organ, such as the kidney, consists of different anatomical components (cortex, medulla, hilum), where the in vivo imaging data provide more spatial information by identifying signal changes within the substructures of an organ (see in vivo sections below).
Although the ex vivo gamma counting is a standard practice in radionuclide studies, a notable limitation is that the tissue collection may be prone to sampling errors. In addition, this approach provides limited spatial information in terms of the distribution within an intact organ/tissue.

[3] = test system: rats; assay: In vivo single time point SPECT/CT/MRI imaging of ^99mTc-duramycin uptake (toxicity scan)
Description: as §1
A second group of animals was with methotrexate as directed by the literature in an effort to examine whether early changes in toxicity would correlate with increases in ^99mTc-duramycin uptake.

[4] = test system: rats; details: cyclophosphamide single dose; each individual normalized to own baseline
Description: This approach involved the acquisition of a baseline scan, prior to drug administration, followed by multiple post-treatment scans spanning the acute phase at 8, 48, 96, and 168 hours. […] In addition, the baseline scan for each animal serves as an internal control. The repeated noninvasive imaging allowed continuous monitoring of tissue changes with individualized data analysis.

[5] = cyclophosphamide single dose 80 mg/kg i.p., 2 days
[6] = cyclophosphamide single dose, day-2

SMILES: N.N.[Cl][Pt][Cl] [cisplatin]
histopathology of kidney ([1]; rat, in vivo): cellular degradation and significantly elevated apoptosis in the cortical region

SMILES: O=P1(N(CCCl)CCCl)NCCCO1 (stereo not drawn) [cyclophosphamide]
tissues with highest fold changes in ^99mTc-duramycin uptake [2, 5]: thymus, adipose tissue, pancreas, brain, right ventricle, liver and bone
tissues with the largest elevation in ^99mTc-duramycin uptake [2, 5]: kidneys, liver, spleen, thymus, lung, small intestine and bone
key tissues with changes in ^99mTc-duramycin uptake [3, 6]: kidneys—medulla and cortex, spleen, thymus and gut
region of the kidneys affected [3, 6]: primarily affect the infundibulum of the kidneys
tissues with statistically elevated, relatively low signals [3, 6]: bones, adipose tissue, heart, lung, muscle, skin and stomach
apoptotic index, kidney medulla [1, 6]: significantly elevated apoptotic index in the local tissue
apoptotic index, thymus [1, 6]: significantly elevated apoptotic index
histopathology of bones (epiphysis regions, marrow) [1, 6]: extensive decellularization in the marrow
tissues with elevated coefficients of variation compared to the baseline [4]: bone, colon, gut, heart, skin, and thymus

histopathology of joints ([1]; rat, in vivo): joint degeneration and thrombosis
SMILES: CN(Cc1cnc2nc(N)nc(N)c2n1)c1ccc(C(=O)N[C@@H](CCC(=O)O)C(=O)O)cc1 [methotrexate]
change in ^99mTc-duramycin uptake in tissues ([2]; rat, in vivo, 100 mg/kg): notable elevation in ^99mTc-duramycin uptake in a number of tissues
most prominent tissues according to fold changes ([2]; rat, in vivo, 100 mg/kg): small intestine, colon, liver, thymus and kidneys
tissues with the highest increase in ^99mTc-duramycin uptake ([2]; rat, in vivo, 100 mg/kg): kidneys, small intestine, liver, and colon
changes in skin signals ([3]; rat, in vivo): non-uniform throughout the body
signals in the joints ([3]; rat, in vivo): drastically elevated signals in the joints
tissues with highest changes in terms of fold elevation ([3]; rat, in vivo): colon, kidney—medulla, bone, spleen, and kidney—cortex
tissues with the highest signal changes as net ^99mTc-duramycin uptake per unit tissue ([3]; rat, in vivo): kidneys and colon

Reference: patent US11607462B2, “Systems and methods for minimally-invasive assessment of toxicity-induced tissue injury” (Northwestern University, priority 2017, dated 2023)
